Consider 22 compounds from patent US20040156869A1, “2-substituted quinazolin-4-ylamine analogues” (Neurogen Corporation, priority 2002, published 2004).

One may read the pKi as the negative decadic logarithm of the Ki, by convention in mol/L. Higher therefore signals a low Ki.

pKi: −log10 of the molar value.

The target of one test is human capsaicin receptor (VR1) (Homo sapiens, UniProt Q8NER1). The experiment in a line: Capsaicin receptor binding assay ([3H]RTX competition, VR1-transfected HEK293 membranes).
Chain of human capsaicin receptor (VR1) (Q8NER1 whole entry): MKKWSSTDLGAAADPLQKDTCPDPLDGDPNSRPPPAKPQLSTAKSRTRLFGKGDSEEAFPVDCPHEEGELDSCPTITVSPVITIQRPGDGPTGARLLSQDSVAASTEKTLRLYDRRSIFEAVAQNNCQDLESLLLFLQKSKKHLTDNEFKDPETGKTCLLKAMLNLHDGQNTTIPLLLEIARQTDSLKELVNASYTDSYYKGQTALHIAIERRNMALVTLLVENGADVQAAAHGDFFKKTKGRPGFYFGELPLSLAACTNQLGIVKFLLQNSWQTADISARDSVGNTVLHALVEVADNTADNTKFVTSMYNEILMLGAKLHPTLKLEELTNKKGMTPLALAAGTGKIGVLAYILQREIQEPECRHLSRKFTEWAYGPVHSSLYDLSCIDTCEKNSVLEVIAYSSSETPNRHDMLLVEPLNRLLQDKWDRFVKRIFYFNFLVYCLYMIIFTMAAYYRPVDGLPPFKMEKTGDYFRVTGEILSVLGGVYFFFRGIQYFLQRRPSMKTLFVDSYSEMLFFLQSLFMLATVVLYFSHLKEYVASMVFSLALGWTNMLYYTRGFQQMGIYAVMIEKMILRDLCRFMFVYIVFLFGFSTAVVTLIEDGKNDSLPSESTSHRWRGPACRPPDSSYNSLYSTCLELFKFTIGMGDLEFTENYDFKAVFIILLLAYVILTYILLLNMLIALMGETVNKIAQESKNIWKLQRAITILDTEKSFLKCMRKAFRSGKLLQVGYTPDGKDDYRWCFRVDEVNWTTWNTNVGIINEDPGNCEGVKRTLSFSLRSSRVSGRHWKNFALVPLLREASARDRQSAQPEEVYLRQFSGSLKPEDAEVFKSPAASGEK
Conditions: not given
Compound `COCCNC(=O)c1nc(Nc2ccc(C(F)(F)F)cc2)c2ccc(-c3ncccc3C(F)(F)F)cc2n1` [Compound 762, 4-(4-Trifluoromethyl-phenylamino)-7-(3-trifluoromethyl-pyridin-2-yl)-quinazoline-2-carboxylic acid (2-methoxy-ethyl)-amide] showed a pKi above 6.00.
`O=C(NCCN1CCCC1)c1nc(Nc2ccc(C(F)(F)F)cc2)c2ccc(-c3ncccc3C(F)(F)F)cc2n1` [Compound 763, 4-(4-Trifluoromethyl-phenylamino)-7-(3-trifluoromethyl-pyridin-2-yl)-quinazoline-2-carboxylic acid (2-pyrrolidin-1-yl-ethyl)-amide] gave a pKi above 6.00.
Consider `O=C(O)CNC(=O)c1nc(Nc2ccc(C(F)(F)F)cc2)c2ccc(-c3ncccc3C(F)(F)F)nc2n1` [Compound 764, {[4-(4-Trifluoromethyl-phenylamino)-7-(3-trifluoromethyl-pyridrn-2-yl)-pyrido[2,3-d]pyrimidine-2-carbonyl]-amino}-acetic acid], for which the pKi is above 6.00.
In turn, `O=C(O)CCNC(=O)c1nc(Nc2ccc(C(F)(F)F)cc2)c2ccc(-c3ncccc3C(F)(F)F)nc2n1` [Compound 765, 3-{[4-(4-Trifluoromethyl-phenylamino)-7-(3-trifluoromethyl-pyridin-2-yl)-pyrido[2,3-d]pyrimidine-2-carbonyl]-amino}-propionic acid] showed a pKi above 6.00.
On to `O=C(O)CCCNC(=O)c1nc(Nc2ccc(C(F)(F)F)cc2)c2ccc(-c3ncccc3C(F)(F)F)nc2n1` [Compound 766, 4-{[4-(4-Trifluoromethyl-phenylamino)-7-(3-trifluoromethyl-pyridin-2-yl)-pyrido[2,3-d]pyrimidine-2-carbonyl]-amino}-butyric acid], for which the pKi is above 6.00.
For `O=C(O)C1CCN(C(=O)c2nc(Nc3ccc(C(F)(F)F)cc3)c3ccc(-c4ncccc4C(F)(F)F)nc3n2)CC1` [Compound 767, 1-[4-(4-Trifluoromethyl-phenylamino)-7-(3-trifluoromethyl-pyridin-2-yl)-pyrido[2,3-d]pyrimidine-2-carbonyl]-piperidine-4-carboxylic acid], the negative-log Ki (pKi) is above 6.00.
Still for that read-out and setting: as for `O=C(O)[C@@H]1CCCN1C(=O)c1nc(Nc2ccc(C(F)(F)F)cc2)c2ccc(-c3ncccc3C(F)(F)F)nc2n1` [Compound 768, (S)-1-[4-(4-Trifluoromethyl-phenylamino)-7-(3-trifluoromethyl-pyridin-2-yl)-pyrido[2,3-d]pyrimidine-2-carbonyl]-pyrrolidine-2-carboxylic acid], the figure is above 6.00; as for `CN1CCC(c2nc(Nc3ccc(C(C)(C)C)cc3)c3ccc(-c4ncccc4Cl)nc3n2)CC1` [Compound 769, (4-tert-Butyl-phenyl)-[7-(3-chloro-pyridin-2-yl)-2-(1-methyl-piperidin-4-yl)-pyrido[2,3-d]pyrimidin-4-yl]-amine], above 6.00.
Compound `CC(C)c1ccc(Nc2nc(C3CCN(C)CC3)nc3nc(-c4ncccc4Cl)ccc23)cc1` [Compound 770, [7-(3-Chloro-pyridin-2-yl)-2-(1-methyl-piperidin-4-yl)-pyrido[2,3-d]pyrimidin-4-yl]-(4-isopropyl-phenyl)-amine] gave a pKi above 6.00.
On to `CN1CCC(c2nc(Nc3ccc(C(F)(F)F)cc3)c3ccc(-c4ncccc4Cl)nc3n2)CC1` [Compound 771, [7-(3-Chloro-pyridin-2-yl)-2-(1-methyl-piperidin-4-yl)-pyrido[2,3-d]pyrimidin-4-yl]-(4-trifluoromethyl-phenyl)-amine], for which the pKi is above 6.00.
Turning to `C[C@@H]1CN(Cc2cc(Nc3ccc(C(F)(F)F)cc3)c3ccc(-c4ncccc4C(F)(F)F)nc3n2)C[C@H](C)O1` [Compound 773, [2-(2,6-Dimethyl-morpholin-4-ylmethyl)-7-(3-trifluoromethyl-pyridin-2-yl)-[1,8]naphthyridin-4-yl]-(4-trifluoromethyl-phenyl)-amine (cis)], the pKi was above 6.00.
The compound `CC1CCCN1Cc1cc(Nc2ccc(C(F)(F)F)cc2)c2ccc(-c3ncccc3C(F)(F)F)nc2n1` (stereo not shown) [Compound 774, [2-(2-Methyl-pyrrolidin-1-ylmethyl)-7-(3-trifluoromethyl-pyridin-2-yl)-[1,8]naphthyridin-4-yl]-(4-trifluoromethyl-phenyl)-amine] showed a pKi above 6.00.
The same measure, in the same setting: as for `COCCN(CCOC)Cc1cc(Nc2ccc(C(F)(F)F)cc2)c2ccc(-c3ncccc3C(F)(F)F)nc2n1` [Compound 775, [2-{[Bis-(2-methoxy-ethyl)-amino]-methyl}-7-(3-trifluoromethyl-pyridin-2-yl)-[1,8]naphthyridin-4-yl]-(4-trifluoromethyl-phenyl)-amine], the figure is above 6.00; as for `FC(F)(F)c1ccc(Nc2cc(CN3CCCCC3)nc3nc(-c4ncccc4C(F)(F)F)ccc23)cc1` [Compound 799, [2-Piperidin-1-ylmethyl-7-(3-trifluoromethyl-pyridin-2-yl)-[1,8]naphthyridin-4-yl]-(4-trifluoromethyl-phenyl)-amine], above 6.00; as for `FC(F)(F)c1ccc(Nc2cc(CN3CCOCC3)nc3nc(-c4ncccc4C(F)(F)F)ccc23)cc1` [Compound 800], above 6.00.
In turn, `FC(F)(F)c1ccc(Nc2cc(CN3CCSCC3)nc3nc(-c4ncccc4C(F)(F)F)ccc23)cc1` [Compound 802, [2-Thiomorpholin-4-ylmethyl-7-(3-trifluoromethyl-pyridin-2-yl)-[1,8]naphthyridin-4-yl]-(4-trifluoromethyl-phenyl)-amine] gave a pKi above 6.00.
For the compound `CC1CCCCN1Cc1cc(Nc2ccc(C(F)(F)F)cc2)c2ccc(-c3ncccc3C(F)(F)F)nc2n1` (stereo not shown) [Compound 810, [2-(2-Methyl-piperidin-1-ylmethyl)-7-(3-trifluoromethyl-pyridin-2-yl)-[1,8]naphthyridin-4-yl]-(4-trifluoromethyl-phenyl)-amine], the negative logarithm of the Ki (pKi) was above 6.00.
Regarding `CCC1CCCCN1Cc1cc(Nc2ccc(C(F)(F)F)cc2)c2ccc(-c3ncccc3C(F)(F)F)nc2n1` (stereo not shown) [Compound 812, [2-(2-Ethyl-piperidin-1-ylmethyl)-7-(3-trifluoromethyl-pyridin-2-yl)-[1,8]naphthyridin-4-yl]-(4-trifluoromethyl-phenyl)-amine], the pKi was above 6.00.
For `CCN(Cc1cc(Nc2ccc(C(F)(F)F)cc2)c2ccc(-c3ncccc3C(F)(F)F)nc2n1)C1CCCCC1` [Compound 813, [2-[(Cyclohexyl-ethyl-amino)-methyl]-7-(3-trifluoromethyl-pyridin-2-yl)-[1,8]naphthyridin-4-yl]-(4-trifluoromethyl-phenyl)-amine], the pKi was above 6.00.
For `FC(F)(F)c1ccc(Nc2cc(CN3CC=CCC3)nc3nc(-c4ncccc4C(F)(F)F)ccc23)cc1` [Compound 816, [2-(3,6-Dihydro-2H-pyridin-1-ylmethyl)-7-(3-trifluoromethyl-pyridin-2-yl)-[1,8]naphthyridin-4-yl]-(4-trifluoromethyl-phenyl)-amine], the pKi is above 6.00.
`CN1CCN(Cc2cc(Nc3ccc(C(F)(F)F)cc3)c3ccc(-c4ncccc4C(F)(F)F)nc3n2)CC1` [Compound 817, [2-(4-Methyl-piperazin-1-ylmethyl)-7-(3-trifluoromethyl-pyridin-2-yl)-[1,8]naphthyridin-4-yl]-(4-trifluoromethyl-phenyl)-amine] gave a negative logarithm of the Ki (pKi) above 6.00.

The test is the same for the next values; noted with them: Table III; capsaicin receptor binding.
Compound “[2-(2,6-Dimethyl- morpholin-4-ylmethyl)-7- (3-trifluoromethyl-pyridin- 2-yl)-pyrido[3,2- d]pyrimidin-4-yl]-(4- methanesulfonyl-phenyl)- amine (cis) [Compound 584]” had a negative logarithm of the Ki (pKi) above 6.00.
